From patent US20240317741A1, “NAPHTHYRIDINE DERIVATIVE AS ATR INHIBITOR AND METHOD FOR PREPARING SAME” (WIGEN BIOMEDICINE TECHNOLOGY (SHANGHAI) CO., LTD., priority 2021, published 2024)

Columns and labels:
MIA PaCa-2 cells [1] = assay: In-vitro anti-proliferative activity against MIA PaCa-2 cells; type: cell-based; conditions: 72 h after dosing, intracellular ATP content
Experimental: (§1) MIA PaCa-2 cells were seeded on a 384-well plate at 3000 cells/well. After overnight adherence culture, DMSO or the compounds serially diluted 1:5 from 5 μM were added. […] The inhibition percentage of viable cells by the compounds was calculated by comparing with the DMSO group, and the IC50 value was calculated.

MIA PaCa-2 cells [2] = assay: In-vitro anti-proliferative activity in combination with gemcitabine against MIA PaCa-2 cells; type: cell-based; conditions: in combination with 20 nM gemcitabine, 72 h after dosing
Experimental: as §1, with “cells/well, and 20 nM gemcitabine was added.” for “cells/well.”, “100 nM” for “5 μM”

[3] = Liver microsomal stability (human); type: in vitro ADME; conditions: human liver microsomes, 1 μM compound, NADPH regeneration system, 37° C.; for half-life at 1 μM: read-out: T1/2 (min) Human
Experimental: (§2) After 1 μM compound was incubated with 500 µg/mL of human or mouse liver microsomes and a NADPH regeneration system at 37° C. for different times, respectively, LC-MS-MS was used to analyze the remaining amount of the compound and calculate T1/2.

[4] = Liver microsomal stability (mouse); type: in vitro ADME; conditions: mouse liver microsomes, 1 μM compound, NADPH regeneration system, 37° C.; for half-life at 1 μM: read-out: T1/2 (min) Mouse
Experimental: as §2

[5] = In vivo pharmacokinetic experiment in mice; set-up: species or system CD-1 female mice; conditions: for Vd: read-out: Vdss
Experimental: CD-1 female mice aged 7 to 10 weeks were intravenously administered and orally administered at a dose of 2 mg/kg and 10 mg/kg, respectively. The mice were fasted for at least 12 h before the administration and given food 4 h after the administration, and they were given ad libitum access to water during the experiment.
On the day of the experiment, animals in the intravenous group were administered the corresponding compound by single injection via the tail vein at an administration volume of 10 mL/kg, and animals in the oral group were administered the corresponding compound by single intragastric injection at an administration volume of 10 mL/kg. The animals were weighed before administration, and the administration volume was calculated according to the body weight. The sample collection time was 0.083 h, 0.167 h, 0.5 h, 1 h, 2 h, 4 h, 8 h and 24 h. About 200 μL of whole blood was collected through the orbital venous plexus at each time point and used to prepare plasma for concentration determination by high performance liquid chromatography-tandem mass spectrometry (LC-MS/MS). The plasma concentrations were processed using a non-compartmental model of Winnolin pharmacokinetic software, and the pharmacokinetic parameters were calculated using a linear-log trapezoidal method.

[6] = Pharmacokinetic evaluation in rats; type: in vivo, SD female rats
Experimental: SPF-grade SD female rats aged 7 to 10 weeks were intravenously administered and orally administered at a dose of 1 mg/kg and 10 mg/kg, respectively. The rats were fasted for at least 12 h before the administration and given food 4 h after the administration, and they were given ad libitum access to water during the experiment.
On the day of the experiment, animals in the intravenous group were administered the corresponding compound by single injection via the tail vein at an administration volume of 2 mL/kg, and animals in the oral group were administered the corresponding compound by single intragastric injection at an administration volume of 10 mL/kg. The animals were weighed before administration, and the administration volume was calculated according to the body weight. The sample collection time was 0.083 h (only intravenous group), 0.125 h (only oral group), 0.25 h, 0.5 h, 1 h, 2 h, 4 h, 6 h, 8 h and 24 h. About 200 μL of whole blood (EDTA-K2 anticoagulated) was collected via the jugular vein or other suitable vein at each time point and used to prepare plasma for concentration determination by high performance liquid chromatography-tandem mass spectrometry (LC-MS/MS). All animals were suffocated by CO2 after the PK samples were collected at the last time point. The plasma concentrations were processed using a non-compartmental model of Winnolin™ version 8.2 (Pharsight, mountain View, CA) pharmacokinetic software, and the pharmacokinetic parameters were calculated using a linear-log trapezoidal method.

[7] = tested on: Human colon cancer LOVO cells; assay: In vivo efficacy in LoVo model; set-up: species or system nude mouse; conditions: LoVo model in nude mice, 20 mpk BID PO, days 1-3, 8-10, 15-17 and day 21
Experimental: After being subcultured, the cells were collected when they reached the desired amount. 1×10^7 LOVO cells were injected into the left dorsal side of each nude mouse, and the animals were randomly grouped for administration after tumors grew to 100-200 mm^3. The groups were as follows: a solvent control group of 8 mice and a compound group of 8 mice. The compounds were administered orally 3 days a week and interrupted for 4 days, for 21 consecutive days. The vehicle was a 0.5% MC suspension containing 1% tween-80. On Tuesday and Thursday each week, tumor volumes and body weight of the mice were measured, and the nude mice were sacrificed on day 21 after the administration. […] The toxicity of the compounds was evaluated according to the body weight of the mice.

[8] = tested on: Human colon cancer HT29 cells; assay: In vivo efficacy in HT-29 model, alone and with gemcitabine; set-up: species or system nude mouse; conditions: HT-29 model in nude mice, day 21
Experimental: After being subcultured, the cells were collected when they reached the desired amount. 1×10^7 HT29 cells were injected into the left dorsal side of each nude mouse, and the animals were randomly grouped for administration after tumors grew to 100-200 mm^3. The groups were as follows: a solvent control group of 6 mice, a single drug group of 15 mg/kg gemcitabine (GMC), and a combination group of 15 mg/kg gemcitabine and a compound. Gemcitabine was administered intraperitoneally with PBS as a vehicle once a week. The compounds were administered 3 days a week and interrupted for 4 days (3 on/4 off), for 21 consecutive days, and the vehicle was a 0.5% MC suspension containing 1% tween-80. On Tuesday and Thursday each week, tumor volumes and body weight of the mice were measured, and the nude mice were sacrificed on day 21 after the administration. […] The toxicity of the compounds was evaluated according to the body weight of the mice.

[9] = female, CD-1, mouse, plasma, Oral administration (10 mg/kg)
[10] = female, CD-1, mouse, plasma, Oral administration (10 mg/kg), read-out: Cmax
[11] = female, CD-1, mouse, plasma, Oral administration (10 mg/kg), read-out: Tmax
[12] = female, CD-1, mouse, plasma, iv, Injection (2 mg/kg)
[13] = female, SD, rat, plasma, Oral administration (10 mg/kg)
[14] = female, SD, rat, plasma, iv, Injection (1 mg/kg)
[15] = compound 20 mpk BID PO 3 on/4 off + GMC 15 mpk QW IP
[16] = single agent, 20 mpk BID PO, 3on/4off

For `C[C@@H]1COCCN1c1cc(C2(C#N)CCOCC2)c2ccnc(-c3ccn[nH]3)c2n1` [Compound 29], which IC50 (MIA PaCa-2 cells [1]; Homo sapiens) is on record?
Its IC50 is less than 1000 nM.

What about the IC50 (MIA PaCa-2 cells [2]) of the same molecule?
Its IC50 is 1.5 nM.

And the half-life at 1 μM [3]?
The half-life at 1 μM was 51.4 min.

What about the half-life at 1 μM [4] of the same molecule?
Its half-life at 1 μM is 8.68 min.

And the AUC(0-t) [5, 9]?
The AUC(0-t) was 3300 ng·h/mL.

What about the bioavailability [5, 9] of the same molecule?
The bioavailability was 34.5%.

What about the half-life [5, 9] of the same molecule?
The half-life was 46.8 min.

And the Cmax [5, 10]?
Its Cmax is 1720 ng/mL.

And the Tmax [5, 11]?
The Tmax was 30 min.

What about the AUC(0-t) [5, 12] of the same molecule?
The AUC(0-t) was 1920 ng·h/mL.

And the clearance [5, 12]?
Its clearance is 17.4 mL/min/kg.

And the half-life [5, 12]?
Its half-life is 40.2 min.

What about the Vd [5, 12] of the same molecule?
Its Vd is 0.58 L/kg.

And the AUC(0-t) [6, 13]?
Its AUC(0-t) is 8030 ng·h/mL.

What about the bioavailability [6, 13] of the same molecule?
The bioavailability was 120%.

And the half-life [6, 13]?
The half-life was 171 min.

And the Cmax ([6]; female, SD, rat, plasma, Oral administration (10 mg/kg), read-out: Cmax)?
The Cmax was 1550 ng/mL.

What about the Tmax ([6]; female, SD, rat, plasma, Oral administration (10 mg/kg), read-out: Tmax) of the same molecule?
The Tmax was 60 min.

And the AUC(0-t) [6, 14]?
Its AUC(0-t) is 669 ng·h/mL.

And the clearance [6, 14]?
Its clearance is 24.9 mL/min/kg.

What about the half-life [6, 14] of the same molecule?
Its half-life is 103 min.

What about the Vd ([6]; female, SD, rat, plasma, iv, Injection (1 mg/kg), read-out: Vdss) of the same molecule?
Its Vd is 3 L/kg.

And the “TGI(%)” value [7]?
Its value is 83.2%.

What about the “TGI(%)” value [8, 15] of the same molecule?
The value was 85.3%.

What about the “TGI(%)” value [8, 16] of the same molecule?
The value was 49.9%.

With “(R)-1-(2-(3-methylmorpholino)-8-(1H-pyrazol-5-yl)-1,7-naphthyridin-4-ylmethyl)cyclohexane-1-carbonitrile [Compound 25]” as the molecule, how does the IC50 (MIA PaCa-2 cells [1]) read?
The IC50 was less than 1000 nM.

And the IC50 (MIA PaCa-2 cells [2])?
The IC50 was 0.257 nM.

And the “T1/2 (min) Human” value [3]?
The value was 7.90 min.

And the “T1/2 (min) Mouse” value [4]?
Its value is 2.90 min.

And the AUC0-last ([5]; Injection (2 mg/kg))?
The AUC0-last was 203.21 ng·h/mL.

What about the Cl ([5]; Injection (2 mg/kg)) of the same molecule?
The Cl was 82.02 mL/min/kg.

And the T1/2 ([5]; Injection (2 mg/kg))?
Its T1/2 is 19.8 min.

What about the Vdss ([5]; Injection (2 mg/kg)) of the same molecule?
The Vdss was 1.84 L/kg.

What about the AUC0-last ([5]; Oral administration (10 mg/kg)) of the same molecule?
Its AUC0-last is 1103.1 ng·h/mL.

And the Cmax ([5]; Oral administration (10 mg/kg))?
Its Cmax is 455 ng/mL.

And the F % ([5]; Oral administration (10 mg/kg))?
Its F % is 54.3%.

What about the T1/2 ([5]; Oral administration (10 mg/kg)) of the same molecule?
Its T1/2 is 53.4 min.

And the Tmax ([5]; Oral administration (10 mg/kg))?
Its Tmax is 60 min.

What about the AUC0-last ([6]; Injection (1 mg/kg)) of the same molecule?
Its AUC0-last is 269.92 ng·h/mL.

What about the Cl ([6]; Injection (1 mg/kg)) of the same molecule?
The Cl was 61.75 mL/min/kg.

What about the T1/2 ([6]; Injection (1 mg/kg)) of the same molecule?
The T1/2 was 39 min.

What about the Vdss ([6]; Injection (1 mg/kg)) of the same molecule?
The Vdss was 2.14 L/kg.

And the AUC0-last ([6]; Oral administration (10 mg/kg))?
The AUC0-last was 1309.43 ng·h/mL.

What about the Cmax ([6]; Oral administration (10 mg/kg)) of the same molecule?
The Cmax was 396.33 ng/mL.

And the F % ([6]; Oral administration (10 mg/kg))?
Its F % is 48.5%.

And the T1/2 ([6]; Oral administration (10 mg/kg))?
Its T1/2 is 30 min.

What about the Tmax ([6]; Oral administration (10 mg/kg)) of the same molecule?
The Tmax was 54 min.

And the “TGI(%)” value [7]?
Its value is 84.0%.

And the “TGI(%)” value [8, 15]?
The value was 86.1%.

With `C[C@@H]1COCCN1c1cc(C2(C#N)CCC(O)CC2)c2ccnc(-c3ccn[nH]3)c2n1` (stereo partly drawn) [Compound 33, (R)-4-hydroxy-1-(2-(3-methylmorpholine)-8-(1H-pyrazol-5-yl)-1,7-naphthyridin-4-yl)cyclohexane-1-carbonitrile] as the molecule, how does the IC50 (MIA PaCa-2 cells [1]; Homo sapiens) read?
The IC50 was less than 1000 nM.

What about the IC50 (MIA PaCa-2 cells [2]) of the same molecule?
Its IC50 is 1.08 nM.

What about the half-life at 1 μM [3] of the same molecule?
The half-life at 1 μM was 632 min.

And the half-life at 1 μM [4]?
The half-life at 1 μM was 19.6 min.

And the AUC(0-t) [5, 9]?
The AUC(0-t) was 937 ng·h/mL.

And the bioavailability [5, 9]?
Its bioavailability is 31.8%.

What about the half-life [5, 9] of the same molecule?
Its half-life is 41.4 min.

What about the Cmax [5, 10] of the same molecule?
The Cmax was 1010 ng/mL.

What about the Tmax [5, 11] of the same molecule?
Its Tmax is 30 min.

And the AUC(0-t) [5, 12]?
The AUC(0-t) was 588 ng·h/mL.

What about the clearance [5, 12] of the same molecule?
The clearance was 56.6 mL/min/kg.

And the half-life [5, 12]?
The half-life was 96.6 min.

What about the Vd [5, 12] of the same molecule?
Its Vd is 1.27 L/kg.

What about the “TGI(%)” value [7] of the same molecule?
Its value is 79.1%.

What about the “TGI(%)” value [8, 15] of the same molecule?
Its value is 82.3%.

What about the “TGI(%)” value [8, 16] of the same molecule?
The value was 57.4%.
